According to patent US6905841B2, “Enzymatic substrates for detecting Pseudomonas aeruginas” (Biomerieux S.A., priority 1999, dated 2005):
Where two headings read alike, the source gives them in different places.

Columns and labels:
β-alanine aminopeptidase [1] = details: Aeromonas hydrophila; 2 strains tested; read after 22 to 24 hours
β-alanine aminopeptidase [2] = details: Citrobacter koseri; 1 strain tested; read after 22 to 24 hours
β-alanine aminopeptidase [3] = details: Proteus mirabilis; 2 strains tested; read after 22 to 24 hours
β-alanine aminopeptidase [4] = details: Enterobacter aerogenes; 2 strains tested; read after 22 to 24 hours
β-alanine aminopeptidase [5] = details: Klebsiella pneumoniae; 3 strains tested; read after 22 to 24 hours
β-alanine aminopeptidase [6] = details: Pseudomonas fluorescens; 2 strains tested; read after 22 to 24 hours
β-alanine aminopeptidase [7] = details: Brevundimonas diminuta; 2 strains tested; read after 22 to 24 hours
β-alanine aminopeptidase [8] = details: Moraxella non liquefaciens; 2 strains tested; read after 22 to 24 hours
β-alanine aminopeptidase [9] = details: Pseudomonas putida; 1 strain tested; read after 22 to 24 hours
β-alanine aminopeptidase [10] = details: Chryseobacterium meningosepticum; 2 strains tested; read after 22 to 24 hours
β-alanine aminopeptidase [11] = details: Pseudomonas aeruginosa; 13 strains tested; read after 22 to 24 hours
β-alanine aminopeptidase [12] = details: Proteus vulgaris; 1 strain tested; read after 22 to 24 hours
β-alanine aminopeptidase [13] = test: APIZYM-type test strips with β-alanyl-β-naphthylamide; assay type: cell-based; details: Enterobacter cloacae; five strains
β-alanine aminopeptidase [14] = test: as above; assay type: cell-based; details: Moraxella non liquefaciens; 13 strains
β-alanine aminopeptidase [15] = test: as above; assay type: cell-based; details: Psychrobacter phenylpyruvicus; 4 strains
β-alanine aminopeptidase [16] = test: as above; assay type: cell-based; details: Citrobacter diversus; five strains
β-alanine aminopeptidase [17] = test: as above; assay type: cell-based; details: Achroniobacter xylosoxidans spp. denitrificans; five strains
β-alanine aminopeptidase [18] = test: as above; assay type: cell-based; details: Pseudomonas alcaligenes; five strains
β-alanine aminopeptidase [19] = test: as above; assay type: cell-based; details: Serratia marcescens; five strains
β-alanine aminopeptidase [20] = test: as above; assay type: cell-based; details: Chryseobacterium indologenes; five strains
β-alanine aminopeptidase [21] = test: as above; assay type: cell-based; details: Vibrio alginolyticus; five strains
β-alanine aminopeptidase [22] = test: as above; assay type: cell-based; details: Myroïdes spp.; five strains
β-alanine aminopeptidase [23] = test: as above; assay type: cell-based; details: Klebsiella ozaenae; five strains
β-alanine aminopeptidase [24] = test: as above; assay type: cell-based; details: Enterobacter gergoviae; five strains
β-alanine aminopeptidase [25] = test: as above; assay type: cell-based; details: Ochrobactrum anthropi; five strains
β-alanine aminopeptidase [26] = test: as above; assay type: cell-based; details: Yersinia enterocolitica; five strains
β-alanine aminopeptidase [27] = test: as above; assay type: cell-based; details: Serratia liquefaciens; five strains
β-alanine aminopeptidase [28] = assay type: cell-based; details: Yersinia pseudotuberculosis; five strains
β-alanine aminopeptidase [29] = test: APIZYM-type test strips with β-alanyl-β-naphthylamide; assay type: cell-based; details: Stenotrophomonas maltophilia; five strains
β-alanine aminopeptidase [30] = test: as above; assay type: cell-based; details: Salmonella choleraesuis; five strains
β-alanine aminopeptidase [31] = test: as above; assay type: cell-based; details: Pasteurella aerogenes; five strains
β-alanine aminopeptidase [32] = assay type: cell-based; details: out of the seventy nine (79) tested
β-alanine aminopeptidase [33] = test: APIZYM-type test strips with β-alanyl-β-naphthylamide; assay type: cell-based; details: Weeksella virosa; 4 strains
β-alanine aminopeptidase [34] = test: as above; assay type: cell-based; details: Pseudomonas oryzihabitans; five strains
β-alanine aminopeptidase [35] = test: as above; assay type: cell-based; details: Actinobacillus spp.; five strains
β-alanine aminopeptidase [36] = test: as above; assay type: cell-based; details: Shewanella putrefaciens; five strains
β-alanine aminopeptidase [37] = test: as above; assay type: cell-based; details: Pseudomonas fluorescens; five strains

NCCC(=O)c1c(N)cc(Cl)c(O)c1Cl
0: Number positive results (β-alanine aminopeptidase [1]) | Number positive results (β-alanine aminopeptidase [2]) | Number positive results (β-alanine aminopeptidase [3]) | Number positive results (β-alanine aminopeptidase [4]) | Number positive results (β-alanine aminopeptidase [5]) | Number positive results (β-alanine aminopeptidase [7]) | Number positive results (β-alanine aminopeptidase [8]) | Number positive results (β-alanine aminopeptidase [9]) | Number positive results (β-alanine aminopeptidase [10]) | Number of negative results (β-alanine aminopeptidase [11]) | Number positive results (β-alanine aminopeptidase [12])
1: Number of negative results (β-alanine aminopeptidase [2]) | Number of negative results (β-alanine aminopeptidase [6]) | Number positive results (β-alanine aminopeptidase [6]) | Number of negative results (β-alanine aminopeptidase [9]) | Number of negative results (β-alanine aminopeptidase [12])
2: Number of negative results (β-alanine aminopeptidase [1]) | Number of negative results (β-alanine aminopeptidase [3]) | Number of negative results (β-alanine aminopeptidase [4]) | Number of negative results (β-alanine aminopeptidase [7]) | Number of negative results (β-alanine aminopeptidase [8]) | Number of negative results (β-alanine aminopeptidase [10])
3: Number of negative results (β-alanine aminopeptidase [5])
13: Number positive results (β-alanine aminopeptidase [11])

β-alanyl-β-naphthylamide
6 species: number of species found to possess β-alanine aminopeptidase activity (β-alanine aminopeptidase [32])
negative: β-alanine aminopeptidase activity, result (β-alanine aminopeptidase [13]) | β-alanine aminopeptidase activity, result (β-alanine aminopeptidase [14]) | β-alanine aminopeptidase activity, result (β-alanine aminopeptidase [15]) | β-alanine aminopeptidase activity, result (β-alanine aminopeptidase [16]) | β-alanine aminopeptidase activity, result (β-alanine aminopeptidase [17]) | β-alanine aminopeptidase activity, result (β-alanine aminopeptidase [18]) | β-alanine aminopeptidase activity, result (β-alanine aminopeptidase [19]) | β-alanine aminopeptidase activity, result (β-alanine aminopeptidase [20]) | β-alanine aminopeptidase activity, result (β-alanine aminopeptidase [21]) | β-alanine aminopeptidase activity, result (β-alanine aminopeptidase [22]) | β-alanine aminopeptidase activity, result (β-alanine aminopeptidase [23]) | β-alanine aminopeptidase activity, result (β-alanine aminopeptidase [24]) | β-alanine aminopeptidase activity, result (β-alanine aminopeptidase [26]) | β-alanine aminopeptidase activity, result (β-alanine aminopeptidase [28]) | β-alanine aminopeptidase activity, result (β-alanine aminopeptidase [29]) | β-alanine aminopeptidase activity, result (β-alanine aminopeptidase [30]) | β-alanine aminopeptidase activity, result (β-alanine aminopeptidase [31]) | β-alanine aminopeptidase activity, result (β-alanine aminopeptidase [33]) | β-alanine aminopeptidase activity, result (β-alanine aminopeptidase [34]) | β-alanine aminopeptidase activity, result (β-alanine aminopeptidase [35]) | β-alanine aminopeptidase activity, result (β-alanine aminopeptidase [36])
positive: β-alanine aminopeptidase activity, result (β-alanine aminopeptidase [25]) | β-alanine aminopeptidase activity, result (β-alanine aminopeptidase [27]) | β-alanine aminopeptidase activity, result (β-alanine aminopeptidase [37])
